Test results: patent US4323602A, “Water repellent and preservative for wood products” (priority 1980, dated 1982)

Test system: Lenzites trabea (Madison strain 617)
Test: NWMA Soil-Block Test (fungicide effectiveness, wood decay)
Conditions: 5.4 times the threshold concentration (NWMA)
Description: The product of Table 2, diluted with four parts water, was tested as a fungicide using a standard National Woodwork Manufacturers Association (NWMA) Soil-Block Test to determine and compare effectiveness with a Standard Solvent Based 5% Penta treating solution. This test method is used to determine the minimum amount of preservative that is effective in preventing decay of selected species of wood by selected fungi under optimum laboratory conditions.
The test method may be briefly summarized as follows: Conditioned blocks of wood are impregnated with solutions of a preservative in water or organic solvent to form one or more series of gradient retentions of the preservative in the blocks. After periods of weathering, the impregnated blocks are exposed to the wood-destroying fungus, Lenzites trabea (Madison strain 617). The minimum amount of preservative which protects the impregnated blocks against decay by the fungus is defined as the threshold retention for that organism. Failure to protect is evidenced by loss of wood from the treated wood blocks, as indicated by a loss in weight.
The threshold retention expressed in pounds of treating solution per cubic foot of wood represents the minimum amount of preservative necessary to protect wood from decay. […]

CCCCNC(=O)OCC#CI [Example 3-Iodo, 3-iodo-2-propynyl butyl carbamate]
Use Concentration: 0.27%
